According to US8609610B2, “Inhibitors of the trypsin-like site of the proteasome and methods of use thereof” (Trustees of Dartmouth College, priority 2011, dated 2013):
Where a name gives a salt, the structure may show the parent alone.

Experiments:
[1] = test system: trypsin-like site of 26S proteasomes; assay: Inhibition of purified 26S proteasomes, substrate Ac-RLR-amc; type: biochemical, rabbit; settings: for IC50 (Chym-L)/IC50 (Tr-L): rabbit 26S proteasomes
[2] = biological target: T1, trypsin-like site of 26S proteasomes (Oryctolagus cuniculus, UniProt G1SWK8); assay: as above; type: biochemical, rabbit; settings: purified 26S proteasomes; >>30 no inhibition at 30 μM, >30 inhibition between 10 and 50% at 30 μM; read-out: IC50 for sites in 26S proteasomes: Tr-L
T1 construct: IC50 for sites in 26S proteasomes: Tr-L; other: purified 26S proteasomes; other: 26S proteasomes from rabbit muscles
T1 sequence (G1SWK8 1-271): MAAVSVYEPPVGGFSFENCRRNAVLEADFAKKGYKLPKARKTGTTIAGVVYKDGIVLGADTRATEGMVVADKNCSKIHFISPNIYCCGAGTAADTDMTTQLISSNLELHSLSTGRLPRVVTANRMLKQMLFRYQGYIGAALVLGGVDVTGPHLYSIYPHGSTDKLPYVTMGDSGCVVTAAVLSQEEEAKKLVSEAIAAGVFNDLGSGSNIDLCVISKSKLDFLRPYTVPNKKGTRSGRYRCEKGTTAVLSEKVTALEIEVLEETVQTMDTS

[3] = biological target: T2, chymotrypsin-like site of 26S proteasomes (Oryctolagus cuniculus, UniProt G1T4Q9); assay: Inhibition of purified 26S proteasomes, substrate Suc-LLVY-amc; type: biochemical, rabbit; settings: >>30 no inhibition at 30 μM, >30 inhibition between 10 and 50% at 30 μM, read-out: IC50 for sites in 26S proteasomes: Chym-L
T2 sequence (G1T4Q9 1-263): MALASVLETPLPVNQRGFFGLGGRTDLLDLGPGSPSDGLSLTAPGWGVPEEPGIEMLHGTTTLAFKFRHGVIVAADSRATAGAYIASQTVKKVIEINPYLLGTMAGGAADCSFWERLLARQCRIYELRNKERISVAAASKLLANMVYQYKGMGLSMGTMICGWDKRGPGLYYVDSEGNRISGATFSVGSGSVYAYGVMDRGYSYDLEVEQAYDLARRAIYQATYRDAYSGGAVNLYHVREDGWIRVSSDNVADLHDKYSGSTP
Experimental: (§1) 26S proteasomes were purified from rabbit muscle using known methods (Screen, et al. (2010) supra). […] NOVEX Bis-Tris gels (12%, Invitrogen) with MOPS running buffer were used for electrophoretic separation of catalytic subunits modified by active-site probes. Inhibition of active sites inside cells was assayed using luminescent PROTEASOMEGLO assay (Promega; Moravec, et al. (2009) Anal. Biochem. 387:294-302) according to known methods (Britton, et al. (2009) supra).

Cathepsin B, H, L, S = assay: Cathepsin activity with pan-cathepsin substrate Z-FR-amc; type: cell-based; settings: NCI-H929 cells, 6 hour treatment
Experimental: Cathepsin B, H, L, S activity was measured with pan-cathepsin substrate Z-FR-amc (Kirschke & Wiederanders (1994) Methods Enzymol. 244:500-11) in extracts of cytosol-less cells at pH 6.0 (Screen, et al. (2010) supra). Cathepsin D activity was measured in cytosol-less extracts using SENSOLYTE 520 Cathepsin D Fluorometric Assay Kit (AnaSpec). Combined cathepsin D and E activity was measured using the same kit, in which cathepsin D substrate provided with the kit was replaced with 7-Methoxycoumarin-[…](Dnp)-X′-NH2 (SEQ ID NO:10; where “X′” stand for D-Arg) internally quenched fluorogenic substrate of cathepsin D and E. In this case, pH 3.0 assay buffer used for cell extraction. All activity observed using both procedures was inhibited by more than 98% by specific inhibitor of aspartic proteases pepstatin A.

[4] = test system: trypsin-like sites (β2) of proteasome in MM cells; assay: PROTEASOMEGLO assay of proteasome inhibition in MM cells; type: cell-based
Experimental: Proteasome inhibition in MM cells was measured with luminogenic substrates using PROTEASOMEGLO assay (Promega). […] An aliquot of culture was pelleted and medium was removed and replaced with PBS. The resulting cell suspension was mixed with luminogenic substrates in the manufacturer-provided lysis/assay buffer. After 3 minutes mixing on an orbital shaker, the plate was incubated in the dark for additional 17 minutes, followed by the measurements of the luminescence, performed in triplicate for each substrate/data point. Data were analyzed as for purified proteasomes. […] Cells (1×10^6 per well of a 6-well plate) were incubated with the inhibitors for 4 hours at 37° C. and this was followed by a 2 hour incubation with 5 μM BODIPY-TMR-epoxomicin. Subsequently, the medium was removed and the cells were washed with PBS and harvested. […] The supernatant was collected and the protein concentration was determined by the Bradford assay, and used to normalize gel loading. The samples were analysed by SDS-PAGE and fluorescent densitometry as described for competition experiment in cell lysates. IC50 values were calculated from three independent experiments using […] PRISM software.

[5] = biological target: caspase-like site of 26S proteasomes (Oryctolagus cuniculus, UniProt A0A5F9DQW2); assay: Inhibition of purified 26S proteasomes, substrate Ac-nLPnLD-amc; type: biochemical, rabbit; settings: >>30 no inhibition at 30 μM, >30 inhibition between 10 and 50% at 30 μM, read-out: IC50 for sites in 26S proteasomes: Casp-L
Chain of caspase-like site of 26S proteasomes (A0A5F9DQW2 1-212): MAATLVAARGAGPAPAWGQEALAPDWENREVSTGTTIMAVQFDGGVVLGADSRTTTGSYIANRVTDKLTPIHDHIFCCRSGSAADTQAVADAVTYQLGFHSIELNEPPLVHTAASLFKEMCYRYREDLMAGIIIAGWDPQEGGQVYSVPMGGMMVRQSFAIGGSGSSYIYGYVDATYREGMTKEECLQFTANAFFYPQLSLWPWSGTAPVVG
Experimental: as §1

RPMI-8226 cells = assay: ALAMAR BLUE cell viability assay; type: cell-based; settings: E-64d 10 μM
Experimental: RPMI-8226 and NCI-H929 cells were cultured in RPMI-1640 supplemented with 10% fetal bovine serum, penicillin, streptomycin, and plasmocin in 5% CO2 humidified incubator. HEK-293T cells were cultured in DMEM containing 10% fetal calf serum, 10 units/mL penicillin, and 10 μg/mL streptomycin in a 7% CO2 humidified incubator. Viability of multiple myeloma cells was measured with ALAMAR BLUE mitochondrial dye conversion assay. Viability of peripheral blood mononuclear cells (PBMNCs) was measured using CELL TITER-GLO luminescent cell viability assay (Promega), which is based on quantification of ATP present in the cells. Caspase-3/7 activity was measured using APO-ONE 3/7 homogeneous assay (Promega).

β5 proteasome subunit = biological target: T3, β5 proteasome subunit (Homo sapiens, UniProt P20618+P28074); assay: Competition assay in HEK-293T cell lysate with MV151; type: biochemical; settings: HEK293 extracts
T3 construct: Whole cell lysates of HEK-293T or EL-4 cells were made by sonication; endogenous in cells; host or cells: HEK-293T
Experimental: Whole cell lysates of HEK-293T or EL-4 cells were made by sonication in 3 volumes of lysis buffer containing 50 mM Tris pH 7.5, 1 mM DTT, 5 mM MgCl2, 250 mM sucrose, 2 mM ATP, 0.025% digitonin. Protein concentration was determined by the Bradford assay. Cell lysates (13.5 μg total protein for HEK lysates and 9 μg total protein for EL-4 lysates) were exposed to the inhibitors for 1 hour at 37° C. prior to incubation with MV151 (0.5 μM) or BODIPY-TMR-epoxomicin (0.5 μM) for an additional 1 hour at 37° C. Reaction mixtures were boiled with Laemmli's buffer containing (3-mercaptoethanol for 5 minutes before being resolved by 12.5% SDS-PAGE. In-gel detection of residual proteasome activity was performed in the wet gel slabs directly on the TYPHOON Variable Mode Imager (Amersham Biosciences) using the Cy3/Tamra settings (λex 532 nm, λem 560 nm) to detect MV151, BODIPY-TMR-epoxomicin and Cy2/Fam settings (λex 488 nm, λem 520 nm) to detect compounds 39 and 59.
The inhibition potential of the inhibitors for each of the catalytically active subunits was assessed in competition assays employing extracts of human embryonic kidney cells (HEK-293T) and mouse lymphoma cells (EL-4) in combination with the fluorescent broad spectrum proteasome probe MV151 (Verdoes, et al. (2006) Chem. Biol. 13:1217-1226). Competitive inhibition of a proteasome active site is reflected by the disappearance of the corresponding band on a gel.

Row | Compound | IC50 [2] | IC50 [3] | IC50 [5] | IC50 (Chym-L)/IC50 (Tr-L) [1] | also measured
1 | BODIPY-triazole-Phe-Phe(4-CH2NH2.TFA)-Leu-Phe(4-CH2NH2.TFA)-VS [Compound 59] | – | – | – | – | specificity after attachment of BODIPY-FL dye [1]: reduced the specificity
2 | CC(C)C[C@H](NC(=O)[C@H](Cc1ccc(N)cc1)NC(=O)[C@H](Cc1ccccc1)N=[N+]=[N-])C(=O)N[C@H](/C=C/S(C)(=O)=O)Cc1ccc(CN)cc1 [Compound 51, N3-Phe-Phe (4-NH2. TFA)-Leu-Phe (4-CH2NH2.TFA)-VS] | 0.03 µM | 3.4 µM | – | – | inhibition of cathepsins (Z-FR-amc) (Cathepsin B, H, L, S): behaved similarly to 4a; difference in IC50 for trypsin-like activity between NCI-H929 and RPMI-8226 [4]: five-fold
3 | CC(C)C[C@H](NC(=O)[C@H](Cc1ccccc1)N=[N+]=[N-])C(=O)N[C@@H](CC(C)C)C(=O)N[C@H](/C=C/S(C)(=O)=O)CCCCN [Compound 47, N3-Phe-Leu-Leu-Lys-VS] | – | – | > 30 µM | – | –
4 | CC(C)C[C@H](NC(=O)[C@H](Cc1ccccc1)N=[N+]=[N-])C(=O)N[C@@H](CC(C)C)C(=O)N[C@H](/C=C/S(C)(=O)=O)Cc1ccc(N)cc1 [Compound 45a, N3-Phe-Leu-Leu-Phe(4-NH2)-VS] | 0.11 µM | 0.04 µM | 23 µM | – | –
5 | CC(C)C[C@@H](/C=C/S(C)(=O)=O)NC(=O)[C@H](CC(C)C)NC(=O)[C@H](Cc1ccc(CN)cc1)NC(=O)[C@H](Cc1ccccc1)N=[N+]=[N-] [Compound 55, N3-Phe-Phe(4-CH2NH2.TFA)-Leu-Leu-VS] | – | 0.01 µM | – | 0.057 | –
6 | CC(C)C[C@H](NC(=O)[C@H](Cc1ccccc1)NC(=O)[C@H](Cc1ccccc1)N=[N+]=[N-])C(=O)N[C@H](/C=C/S(C)(=O)=O)Cc1ccccc1 [Compound 58, N3-Phe-Phe-Leu-Phe-VS] | > 30 µM | – | > 30 µM | – | –
7 | CC(C)C[C@H](NC(=O)[C@H](Cc1ccccc1)N=[N+]=[N-])C(=O)N[C@@H](CC(C)C)C(=O)N[C@@H](Cc1ccc(CN)cc1)C(=O)[C@@]1(C)CO1 [Compound 4b, N3Phe-Leu-Leu-Phe(4-CH2NH2)EK] | 0.25 µM | – | 11 µM | – | –
8 | CCOC(=O)[C@H]1O[C@@H]1C(=O)N[C@@H](CC(C)C)C(=O)NCCC(C)C [Compound E-64d] | – | – | – | – | sensitization to carfilzomib (RPMI-8226 cells): did not sensitize cells to carfilzomib
9 | CC(C)C[C@H](NC(=O)[C@H](Cc1ccccc1)N=[N+]=[N-])C(=O)N[C@@H](CC(C)C)C(=O)N[C@H](/C=C/S(C)(=O)=O)Cc1ccncc1 [Compound 46, N3-Phe-Leu-Leu-Ala(4-pyridine)-VS] | – | < 0.1 µM | > 30 µM | – | –
10 | CC(C)C[C@H](NC(=O)[C@H](Cc1ccc(CN)cc1)NC(=O)[C@H](Cc1ccccc1)N=[N+]=[N-])C(=O)N[C@H](/C=C/S(C)(=O)=O)Cc1ccncc1 [Compound 54, N3-Phe-Phe (4-CH2NH2)-Leu-Ala (4 pyridine)-VS] | – | – | > 30 µM | 9.1 | –
11 | CC(C)C[C@H](NC(=O)[C@H](Cc1ccccc1)N=[N+]=[N-])C(=O)N[C@@H](CC(C)C)C(=O)N[C@@H](Cc1ccc(N)cc1)C(=O)[C@@]1(C)CO1 [Compound 45b, N3-Phe-Leu-Leu-Phe(4-NH2)-EK] | – | 0.01 µM | > 30 µM | – | –
12 | CC(C)C[C@@H](/C=C/S(C)(=O)=O)NC(=O)[C@H](CC(C)C)NC(=O)[C@H](Cc1ccncc1)NC(=O)[C@H](Cc1ccccc1)N=[N+]=[N-] [Compound 57, N3-Phe-Ala(4-pyridine)-Leu-Leu-VS] | 24 µM | – | > 30 µM | 0.00021 | inhibition of chymotrypsin-like sites in extracts versus purified proteasomes (β5 proteasome subunit): less potently and selectively in extracts than in purified proteasomes
13 | CC(C)C[C@@H](/C=C/S(C)(=O)=O)NC(=O)[C@H](CC(C)C)NC(=O)[C@H](Cc1ccc(N)cc1)NC(=O)[C@H](Cc1ccccc1)N=[N+]=[N-] [Compound 56, N3-Phe-Phe(4-NH2-TFA)-Leu-Leu-VS] | 24 µM | < 0.004 µM | > 30 µM | <0.00017 | inhibition of chymotrypsin-like sites in extracts versus purified proteasomes (β5 proteasome subunit): less potently and selectively in extracts than in purified proteasomes
14 | CC(C)C[C@H](NC(=O)[C@H](Cc1ccncc1)NC(=O)[C@H](Cc1ccccc1)N=[N+]=[N-])C(=O)N[C@H](/C=C/S(C)(=O)=O)Cc1ccc(CN)cc1 [Compound 50, N3-Phe-Ala (4-pyridine)-Leu-Phe (4-CH2NH2-TFA)-VS] | – | – | – | – | inhibition of cathepsins (Z-FR-amc) (Cathepsin B, H, L, S): partly reduced cathepsin activity
15 | Cc1c(O)cccc1C(=O)N[C@H](C(=O)N[C@@H](CO)C(=O)N[C@H](/C=C/S(C)(=O)=O)Cc1ccc(N)cc1)C(C)C [Compound 49, HMB-Val-Ser-Phe(4-NH2)-VS] | 0.11 µM | 0.04 µM | 23 µM | 0.36 | –
16 | CC(C)C[C@H](NC(=O)[C@H](Cc1ccc(CN)cc1)NC(=O)[C@H](Cc1ccccc1)N=[N+]=[N-])C(=O)N[C@H](/C=C/S(C)(=O)=O)Cc1ccc(N)cc1 [Compound 53, N3-Phe-Phe (4-CH2NH2)-Leu-Phe (4-NH2)—VS] | – | – | > 30 µM | 59 | –
